{"source": "patent US20100261711A1", "about": "“SELECTIVE ANTICONVULSANT AGENTS AND THEIR USES” (WiSys Technology Foundation, priority 2009, published 2010)", "key": {"[1]": {"test_system": "Metrazol-induced clonic seizures", "experiment": "Tolerance study, 5 day dosing, scMet", "format": "in vivo, Sprague Dawley rats", "experimental": "The dose utilized was the predetermined ED50 against the scMet seizure model. In this model a subcutaneous injection of the convulsant Metrazol is used to produce highly reproducible clonic seizures in laboratory animals. […] Animals are pretreated with various doses of the test compound. At the time of peak effect (TPE) of the test compound, a dose of Metrazol that induce convulsions in 97% of animals (CD97: 85 mg/kg mice) is injected into a loose fold of skin in the midline of the neck. The animals are placed in isolation cages to minimize stress (Swinyard et al., 1961) and observed for the next 30 minutes for the presence or absence of a seizure. An episode of clonic spasms, approximately 3-5 seconds, of the fore and/or hindlimbs, jaws, or vibrissae is taken as the endpoint.\nIn this study, Sprague Dawley rats were used (average weight 150 gm). […] Finally, Group 3 was the solvent control group. These animals were administered the test solvent (methylcellulose 0.5%) as a control. Here methylcellulose was administered i.p. for all 5 days.\nOn day 5, all animals from each group were tested in the scMet model using the previously determined time of peak effect (TPE) of 15 minutes. Immediately after testing, blood was collected via cardiac puncture. Samples were spun down, plasma was collected and acetonitrile added. Samples were frozen at −80° C. and shipped to a commercial laboratory (Enthalpy) for analysis."}, "[2]": {"experiment": "Plasma levels by LC-MS/MS (tolerance study)", "format": "in vivo, Sprague Dawley rats", "details": "for Conc HZ-166 in plasma, individual subjects: 35.5 mg/kg", "experimental": "Immediately after testing, blood was collected via cardiac puncture. Samples were spun down, plasma was collected and acetonitrile added. Samples were frozen at −80° C. and shipped to a commercial laboratory (Enthalpy) for analysis.\nGroup 3 (8 subjects) was dosed with vehicle only."}, "[3]": {"test_system": "Pilocarpine-induced Status", "experiment": "Pilocarpine-induced status", "format": "in vivo, rats", "details": "for Pilocarpine-induced Status, Time to Peak Effect, ratio of animals: Time 0 Hrs"}}, "note": "“And” between values parts separate entries of the source, which are not always exact repeats. Identical values can stand only once. “Also recorded” adds a separate entry of the source."}
{"smiles": "C#Cc1ccc2c(c1)C(c1ccccn1)=NCc1c(C(=O)OCC)ncn1-2", "note": "[Hz166 (106), 8-Acetylenyl-6-pyridin-2-yl-4H-benzo[f]imidazo[1,5-a][1,4]diazepine-3-carboxylic acid ethyl ester]", "values": [{"measurement": "protection against scMet induced seizures", "setting": "[1]; Group 1 chronic dosing, day 5", "value": "approximately 40%"}, {"measurement": "scMet, animals protected/tested", "setting": "[1]; Group 1 chronic dosing: 35.5 mg/kg ip once daily 5 days, tested day 5 at TPE 15 min, 35.5 mg/kg", "value": "3/8 and 3/8 protected (chronic dosing)"}, {"measurement": "scMet, animals protected/tested", "setting": "[1]; Group 2 acute dosing: single 35.5 mg/kg ip dose on day 5, TPE 15 min, 35.5 mg/kg", "value": "1/8 and 1/8 (acute dosing)"}, {"measurement": "scMet, animals protected/tested", "setting": "[1]; original preliminary study (different rats), acutely treated group", "value": "5/8"}, {"measurement": "scMet, animals protected/tested", "setting": "[1]; original preliminary study (different rats), chronically treated group", "value": "5/8"}, {"measurement": "tolerance to the anticonvulsant effects", "setting": "[1]; rats, dosed 5 days at the calculated scMet ED50", "value": "didn't develop tolerance; also recorded: did not develop tolerance"}, {"measurement": "HZ-166, plasma average with outliers excluded", "setting": "[2]; Group 1 (five days dosing)", "value": 0.334, "unit": "nmol/mL"}, {"measurement": "Conc HZ-166 in plasma, individual subjects", "setting": "[2]; Group 1: HZ-166 35.5 mg/kg ip for five days, blood after test on day 5", "value": "94.3 ng/mL and 85.4 ng/mL and 168 ng/mL and 138 ng/mL and BLQ < (1.00) ng/mL and 118 ng/mL and 198 ng/mL and 30.5 ng/mL"}, {"measurement": "HZ-166, plasma average with outliers excluded", "setting": "[2]; Group 2 (day 5 only)", "value": 0.533, "unit": "nmol/mL"}, {"measurement": "Conc HZ-166 in plasma, individual subjects", "setting": "[2]; Group 2: HZ-166 35.5 mg/kg ip on day 5 only", "value": "202 ng/mL and 165 ng/mL and 8.67 ng/mL and 273 ng/mL and 210 ng/mL and 93.3 ng/mL and 176 ng/mL"}]}
{"smiles": "C#Cc1ccc2c(c1)C(c1ccccc1)=N[C@H](C)c1nnc(C)n1-2", "note": "[SH-TR-CH3 (146), (4R)-8-Ethynyl-1,4-dimethyl-6-phenyl-4H-benzo[f][1,2,4]triazolo[4,3-a][1,4]diazepine]", "values": [{"measurement": "Pilocarpine-induced Status, Time to Peak Effect, ratio of animals", "setting": "[3]; Rats, 100 mg/kg, 0.25 Hr", "value": "0/2"}, {"measurement": "Pilocarpine-induced Status, Time to Peak Effect, ratio of animals", "setting": "[3]; Rats, 100 mg/kg, 0.5 Hr", "value": "0/2"}, {"measurement": "Pilocarpine-induced Status, Time to Peak Effect, ratio of animals", "setting": "[3]; Rats, 100 mg/kg, 1.0 Hr", "value": "0/2"}, {"measurement": "Pilocarpine-induced Status, Time to Peak Effect, ratio of animals", "setting": "[3]; Rats, 100 mg/kg, 2.0 Hr", "value": "0/2"}, {"measurement": "Pilocarpine-induced Status, Time to Peak Effect, ratio of animals", "setting": "[3]; Rats, 100 mg/kg, 4.0 Hr", "value": "0/2"}, {"measurement": "Pilocarpine-induced Status, Time to Peak Effect, ratio of animals", "setting": "[3]; Rats, 300 mg/kg, 0.25 Hr", "value": "0/2"}, {"measurement": "Pilocarpine-induced Status, Time to Peak Effect, ratio of animals", "setting": "[3]; Rats, 300 mg/kg, 0.5 Hr", "value": "0/2"}, {"measurement": "Pilocarpine-induced Status, Time to Peak Effect, ratio of animals", "setting": "[3]; Rats, 300 mg/kg, 1.0 Hr", "value": "0/2"}, {"measurement": "Pilocarpine-induced Status, Time to Peak Effect, ratio of animals", "setting": "[3]; Rats, 300 mg/kg, 2.0 Hr", "value": "0/2"}, {"measurement": "Pilocarpine-induced Status, Time to Peak Effect, ratio of animals", "setting": "[3]; Rats, 300 mg/kg, 4.0 Hr", "value": "0/2"}, {"measurement": "Pilocarpine-induced Status, Time to Peak Effect, ratio of animals", "setting": "[3]; Rats, 500 mg/kg, 0.25 Hr, Ataxia noted", "value": "0/2^12"}, {"measurement": "Pilocarpine-induced Status, Time to Peak Effect, ratio of animals", "setting": "[3]; Rats, 500 mg/kg, 0.5 Hr, Ataxia noted", "value": "0/2^12"}, {"measurement": "Pilocarpine-induced Status, Time to Peak Effect, ratio of animals", "setting": "[3]; Rats, 500 mg/kg, 1.0 Hr, Ataxia noted", "value": "0/2^12"}, {"measurement": "Pilocarpine-induced Status, Time to Peak Effect, ratio of animals", "setting": "[3]; Rats, 500 mg/kg, 2.0 Hr, Ataxia noted", "value": "0/2^12"}, {"measurement": "Pilocarpine-induced Status, Time to Peak Effect, ratio of animals", "setting": "[3]; Rats, 500 mg/kg, 4.0 Hr", "value": "0/2"}, {"measurement": "Pilocarpine-induced Status, ratio of animals", "setting": "[3]; Rats, 600 mg/kg, 0 Hrs post first Stage III seizure", "value": "4/7"}, {"measurement": "Pilocarpine-induced Status, ratio of animals", "setting": "[3]; Rats, 1,000 mg/kg, 0.5 Hrs post first Stage III seizure, footnote c: death", "value": "1/7^c"}]}
